Data as given in US6399660B1, “Aminoethylphenoxyacetic acid derivatives and drugs for pain remission and calculi removal promotion in urinary lithiasis” (Kissei Pharmaceutical Co., Ltd., priority 1997, dated 2002).

Columns and labels:
Format in all cases: cell-based
[1] = target: T1, β1-Adrenoceptor (Rattus norvegicus, UniProt P18090); test: β1-Adrenoceptor stimulating effects: heart rate increase in isolated rat atrium (Magnus method); conditions: isolated atria of male SD rats
T1 construct: Atria of male SD rats (350 to 400 g in body weight) were isolated; from tissue; host or cells: isolated atria of male SD rats
Protocol: Atria of male SD rats (350 to 400 g in body weight) were isolated and the experiment was conducted according to the Magnus methods. The preparations with a tension of 1 g were exposed to Krebs-Henseleit solution maintained at 37° C. and gassed with a mixture of 95% oxygen and 5% carbon dioxide. The cardiac contractility was isometrically measured with a force-displacement transducer and recorded by a rectigraph. The drug efficacy was evaluated as the molar concentration required to produce 20 beats/minute increment of the heart rate (i.e., ECΔ20 value).

[2] = target: T2, β2-Adrenoceptor (Rattus norvegicus, UniProt P10608); test: β2-Adrenoceptor stimulating effects: inhibition of spontaneous contractions of isolated pregnant rat uterus (Magnus method); conditions: isolated uterus of pregnant SD rats (day 21), cumulative addition every 5 minutes, read-out: EC50 value (concentration required to produce 50% inhibition of uterine contractions), Test Example 1
T2 construct: Uteri of pregnant SD rats (pregnancy day 21) were isolated and longitudinal smooth muscle strips; from tissue; host or cells: longitudinal smooth muscle strips of pregnant SD rat uterus (day 21)
Protocol: Uteri of pregnant SD rats (pregnancy day 21) were isolated and longitudinal smooth muscle strips of approximately 15 mm in length and approximately 5 mm in width free from the basal plate were prepared. The experiment was conducted according to the Magnus method. The preparations with a tension of 1 g were exposed to Locke-Ringer solution maintained at 37° C. and gassed with a mixture of 95% oxygen and 5% carbon dioxide. Spontaneous contractions of myometrium were isometrically measured with a force-displacement transducer and recorded by a rectigraph. The drug was cumulatively added to the Magnus bath every 5 minutes. The drug efficacy was evaluated as the concentration of the drug required to produce 50% of the inhibition of uterine contractions (i.e., EC50 value) by comparing the sum of uterine contractions during 5 minutes after the addition of the drug with the sum of uterine contractions during 5 minutes before the addition of the drug (100%).

[3] = target: β3-Adrenoceptor (Mustela putorius furo, UniProt M3YEU4); test: β3-Adrenoceptor stimulating effects: inhibition of spontaneous contractions of isolated ferret ureter (Magnus method); conditions: isolated male ferret ureter, cumulative addition every 3 minutes, read-out: EC50 value (concentration required to produce 50% inhibition of ureter contractions), Test Example 2
Protocol: After removal of connective tissue, longitudinal smooth muscle strips of approximately 20 mm in length were prepared. The experiment was conducted according to the Magnus method. The preparations with a tension of 0.5 g were exposed to Krebs-Henseleit solution maintained at 37° C. and gassed with a mixture of 95% oxygen and 5% carbon dioxide. Spontaneous contractions of ureters were isometrically measured with a force-displacement transducer and recorded by a rectigraph. The drug was cumulatively added to the Magnus bath every 3 minutes.

T1 sequence (P18090 whole entry): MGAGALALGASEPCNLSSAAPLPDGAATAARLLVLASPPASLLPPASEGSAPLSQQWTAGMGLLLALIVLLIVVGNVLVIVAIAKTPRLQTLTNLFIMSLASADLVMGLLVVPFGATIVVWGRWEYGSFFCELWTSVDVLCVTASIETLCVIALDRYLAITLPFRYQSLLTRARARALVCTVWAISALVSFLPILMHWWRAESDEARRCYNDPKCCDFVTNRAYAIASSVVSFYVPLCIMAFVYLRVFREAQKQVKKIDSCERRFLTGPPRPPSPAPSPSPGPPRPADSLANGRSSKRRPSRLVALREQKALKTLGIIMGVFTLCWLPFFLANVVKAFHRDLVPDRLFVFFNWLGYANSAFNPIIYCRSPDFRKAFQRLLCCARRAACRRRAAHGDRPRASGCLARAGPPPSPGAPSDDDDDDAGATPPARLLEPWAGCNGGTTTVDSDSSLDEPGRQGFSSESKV
T2 sequence (P10608 whole entry): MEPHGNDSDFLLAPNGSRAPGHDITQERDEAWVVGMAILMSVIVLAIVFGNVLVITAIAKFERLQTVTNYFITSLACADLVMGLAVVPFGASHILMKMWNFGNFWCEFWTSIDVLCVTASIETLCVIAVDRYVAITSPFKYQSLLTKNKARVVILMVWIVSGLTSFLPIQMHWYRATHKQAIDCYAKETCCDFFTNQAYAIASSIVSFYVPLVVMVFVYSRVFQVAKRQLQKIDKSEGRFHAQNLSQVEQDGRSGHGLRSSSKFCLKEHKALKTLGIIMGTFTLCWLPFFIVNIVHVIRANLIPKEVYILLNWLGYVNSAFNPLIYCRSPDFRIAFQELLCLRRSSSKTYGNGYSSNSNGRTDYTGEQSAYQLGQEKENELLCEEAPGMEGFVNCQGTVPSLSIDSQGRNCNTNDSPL
Chain of β3-Adrenoceptor (M3YEU4 entry or part of it): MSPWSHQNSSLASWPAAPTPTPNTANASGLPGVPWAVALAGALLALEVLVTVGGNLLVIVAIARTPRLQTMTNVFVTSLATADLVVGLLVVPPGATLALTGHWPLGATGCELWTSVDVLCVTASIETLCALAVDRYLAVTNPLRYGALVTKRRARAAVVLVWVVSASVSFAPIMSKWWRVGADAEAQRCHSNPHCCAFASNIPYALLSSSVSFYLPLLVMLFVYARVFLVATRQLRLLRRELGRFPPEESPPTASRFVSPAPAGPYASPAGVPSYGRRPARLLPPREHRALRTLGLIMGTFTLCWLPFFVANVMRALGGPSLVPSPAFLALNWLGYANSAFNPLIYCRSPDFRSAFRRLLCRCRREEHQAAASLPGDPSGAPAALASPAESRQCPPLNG

EC50 [2]	SMILES	ECΔ20 value (molar concentration required to produce 20 beats/minute increment of the heart rate), Test Example 3 [1]	ECΔ20 value (molar concentration required to produce 20 beats/minute increment of the heart rate), Test Example 3 ([1]; listed as 2-[4-[2-[[(1S,2R)-2-hydroxy-2-(4-hydroxyphenyl)-1-methylethyl]amino]ethyl]phenox)	EC50 [3]
3.3 nM	C[C@H](NCCc1ccc(OCC(=O)OCc2ccccc2)cc1F)[C@H](O)c1ccc(O)cc1.Cl [Compound 7, Benzyl 2-[3-fluoro-4-[2-[[(1S,2R)-2-hydroxy-2-(4-hydroxyphenyl)-1-methylethyl]amino]ethyl]phenoxy]acetate hydrochloride]	300 nM		
13 nM	C[C@H](NCCc1ccc(OCC(=O)O)cc1Cl)[C@H](O)c1ccc(O)cc1 [Compound 8, 2-[3-Chloro-4-[2-[[(1S,2R)-2-hydroxy-2-(4-hydroxyphenyl)-1-methyl-ethyl]amino]ethyl]phenoxy]acetic acid]	110 nM		
	C[C@H](NCCc1ccc(OCC(=O)O)cc1)[C@H](O)c1ccc(O)cc1 [Compound 9, 2-[4-[2-[[(1S,2R)-2-Hydroxy-2-(4-hydroxyphenyl)-1-methylethyl]-amino]ethyl]phenoxy]acetic acid]	1300 nM	1300 nM	14 nM
39 nM	C[C@H](NCCc1ccc(OCC(=O)O)cc1F)[C@H](O)c1ccc(O)cc1 [Compound 10, 2-[3-Fluoro-4-[2-[[(1S,2R)-2-hydroxy-2-(4-hydroxyphenyl)-1-methyl-ethyl]amino]ethyl]phenoxy]acetic acid]	1000 nM		
